Read-outs that look alike come from different tables or passages of the source. Where a SMILES comes first, the peptide text is derived from it. [ ]: non-standard residue; d: D form. Nleu = CC(C)CNCC(=O)O; Nlys = NCCCCNCC(=O)O
Assays:
[1] = Circular dichroism, α-helical content; type: physicochemical; settings: 0.1 mg/mL; for CD %α with 5 mM DPC: 10 mM phosphate buffer pH 7.4, 5 mM DPC; for CD %α with 20% TFE: 10 mM phosphate buffer pH 7.4, 20% TFE
HEK293 cells = assay: Cell viability assay by Alamar blue; settings: for IC50: read-out: Toxicity on HEK293 cells, CSV
Method: The data are represented as the mean value ± SD, n = 3. […] (c) Vesicle leakage assay for a selection of compounds. Lipid vesicles made of EYPG or EYPC were suspended in a buffer (10 mM TRIS, 107 mM NaCl, pH 7.4). After 45 s, the indicated compound was added to reach the desired concentration. After 240 s, 30 μL of 1.2% TritonX-100 was added for full fluorescein release. […] See Supporting Information for the full curves, all of the data, and procedures.
HEK293 cells were cultured and maintained in DMEM high glucose (Dulbecco’s modified Eagle medium, Sigma Aldrich) medium supplemented with 10% FBS (Sigma Aldrich) and 1% penicillin/streptomycin. A549 cells were cultured and maintained in RPMI-1640 medium (Sigma Aldrich), supplemented with 10% FBS (Sigma Aldrich) and 1% penicillin/streptomycin. The cells were handled and subcultured according to the manufacturer instructions. Cells were incubated in a humidified incubator at 37 °C in the presence of 5% CO2.
Assays on HEK293, A549 cells were performed as described earlier.[74] […]

E. coli W3110 = assay: Time–kill assay; type: cell-based, Escherichia coli
Excerpt: Figure 1 Killing profile of selected compounds on bacteria a) against E. coli W3110 measured in full MH at pH 7.4, b) against P. aeruginosa PAO1 in full MH at pH 7.4, c) against E. coli W3110 in diluted MH at pH 8.5, and d) against P. aeruginosa PAO1 in dilute MH at pH 8.5. The assay was repeated twice in triplicate, and the data represent the mean ± SD, n = 6.

P. aeruginosa PAO1 = assay: NPN outer membrane permeability assay; type: cell-based, Pseudomonas aeruginosa
Method: Figure 5 Interactions of peptide–peptoid hybrids with bacterial outer and inner membranes of P. aeruginosa. (a, b) NPN outer membrane permeability assay. P. aeruginosa PAO1 bacteria were treated with increasing compound concentrations in the presence of 10 μM NPN. The fluorescence intensity (λex = 340 nm, λem = 415 nm) was measured within 5 min. Data represent the mean ± SD, n = 3. (c, d) DiSC3(5) inner membrane depolarization assay. P. aeruginosa PAO1 cells were treated with increasing compound concentrations in the presence of 2 μM DiSC3(5). The fluorescence intensity (λex = 610 nm, λem = 660 nm) was measured within 5 min after treatment, and the data represent mean ± SD, n = 3.
A single colony of P. aeruginosa PAO1 and E. coli W3110 was grown overnight while being shaken (150 rpm) in LB-broth (5 mL) at 37 °C. 100 μL of the overnight culture was regrown in 10 mL of LB broth with shaking (200 rpm) to the exponential phase (OD600 = 1, corresponding to 10^9 CFU/mL). Bacteria were washed three times with HEPES buffer (5 mM HEPES, 5 mM glucose, pH 7.4), but not diluted yet to their final concentration. 200 μL of peptide samples was added to the first well of 96-well plates (black wells, flat bottom, BRAND GmbH Wertheim, Germany), 100 μL of HEPES/glucose buffer with 10 μM N-phenyl-1-naphthylamine (NPN, purchased from Acros Organics) was added in all the wells, and the compounds were diluted serially by 1/2 (add a control with a final volume of 200 μL with 10 μM NPN in buffer only). Ca. 10 min before the measurement and the final dilution of the bacteria, the plates and the 10 μM NPN in HEPES/glucose buffer (for bacteria dilution) were incubated at 37 °C (prior to the dilution of the bacteria with buffer containing NPN 10 μM). Later, the bacteria were diluted to OD600 = 0.5 with the NPN in HEPES/glucose buffer. 100 μL of the bacterial suspension was added to each well. In this case, the final OD of bacteria was 0.25, the final concentration of the desired compound 64 μg/mL, and NPN 10 μM. The control wells are buffer containing NPN (10 μM, 200 μL) and bacterial suspension containing NPN in HEPES buffer. The plate was measured with a Tecan instrument Infinite M1000 within 5 min. The plate was enabled to shake for 5 s before measurement. The excitation wavelength used was 340 ± 5 nm, and emission wavelength was 415 ± 5 nm. The assay was repeated at least three times.

[2] = E. coli W3110, diluted MH at pH 8.5

Compound | CD %α with 5 mM DPC ([1]; DichroWeb, Contin-LL) [%] | CD %α with 20% TFE ([1]; DichroWeb, Contin-LL) [%] | CD %α with 5 mM DPC ([1]; Table S2) [%] | CD %α with 20% TFE ([1]; Table S2) [%] | IC50 (HEK293 cells) [µM] | Time–kill, killing profile (E. coli W3110; E. coli W3110, full MH at pH 7.4) | Outer membrane permeabilization (NPN) (P. aeruginosa PAO1; not told) | Toxicity against HEK293 cells, no effect detected up to (HEK293 cells; Alamar blue, 24 h) [µM] | Time–kill, killing profile (E. coli W3110; [2]) | Outer membrane permeabilization (NPN) (P. aeruginosa PAO1; P. aeruginosa PAO1, 10 μM NPN) | Toxicity against HEK293 cells, no effect detected up to (HEK293 cells) [µM]
CC(C)C[C@H](NC(=O)[C@H](CC(C)C)NC(=O)[C@H](CC(C)C)NC(=O)[C@H](CCCCN)NC(=O)[C@H](CC(C)C)NC(=O)[C@H](CC(C)C)NC(=O)CN(CCCCN)C(=O)[C@H](CC(C)C)NC(=O)[C@H](CC(C)C)NC(=O)CN(CCCCN)C(=O)CNCCCCN)C(N)=O [EB6, kkLLkLLKLLL] (H-[Nlys][Nlys]LL[Nlys]LLKLLL-NH2) | 41 | 35 | 41 | 35 | 54 ± 1 | completely killed | permeabilized the outer membrane |  |  |  | 
CC(C)CN(CC(N)=O)C(=O)CN(CC(C)C)C(=O)CN(CC(C)C)C(=O)CN(CCCCN)C(=O)CN(CC(C)C)C(=O)CN(CC(C)C)C(=O)CN(CCCCN)C(=O)CN(CC(C)C)C(=O)CN(CC(C)C)C(=O)CN(CCCCN)C(=O)CNCCCCN [EB11, kkllkllklll] (H-[Nlys][Nlys][Nleu][Nleu][Nlys][Nleu][Nleu][Nlys][Nleu][Nleu][Nleu]-NH2) | 7 | 8 | 7 | 8 | > 200 |  |  | > 200 | Bacteria could still be detected after 6 h | significant outer membrane permeabilization | 
CC(C)C[C@H](NC(=O)[C@H](CCCCN)NC(=O)CNCCCCN)C(=O)N[C@@H](CC(C)C)C(=O)N[C@@H](CCCCN)C(=O)N[C@@H](CC(C)C)C(=O)N[C@@H](CC(C)C)C(=O)N[C@@H](CCCCN)C(=O)N[C@@H](CC(C)C)C(=O)N[C@@H](CC(C)C)C(=O)N(CC(N)=O)CC(C)C [EB1] (H-[Nlys]KLLKLLKLL[Nleu]-NH2; N-terminus assumed) | 30 | 26 | 30 | 26 | 110 ± 6 |  |  |  |  |  | 
CC(C)C[C@H](NC(=O)CN(CC(C)C)C(=O)[C@H](CC(C)C)NC(=O)CN(CCCCN)C(=O)[C@H](CC(C)C)NC(=O)CN(CC(C)C)C(=O)[C@H](CCCCN)NC(=O)CN(CC(C)C)C(=O)[C@H](CC(C)C)NC(=O)CN(CCCCN)C(=O)[C@@H](N)CCCCN)C(N)=O [EB9, KkLlKlLkLlL] (H-K[Nlys]L[Nleu]K[Nleu]L[Nlys]L[Nleu]L-NH2) | 11 | 13 | 11 | 13 | > 200 |  | significant outer membrane permeabilization |  | Bacteria could still be detected after 6 h |  | > 200
H-KKLLKLLKLLL-NH2 [ln65, reference compound] | 73 | 64 | 73 | 64 | 27 ± 6 |  |  |  |  |  | 
CC(C)C[C@H](NC(=O)[C@H](CC(C)C)NC(=O)[C@H](CC(C)C)NC(=O)[C@H](CCCCN)NC(=O)[C@H](CC(C)C)NC(=O)[C@H](CC(C)C)NC(=O)CN(CCCCN)C(=O)CN(CC(C)C)C(=O)CN(CC(C)C)C(=O)CN(CCCCN)C(=O)CNCCCCN)C(N)=O [EB5, kkllkLLKLLL] (H-[Nlys][Nlys][Nleu][Nleu][Nlys]LLKLLL-NH2) |  |  |  |  |  |  | permeabilized the outer membrane |  |  |  | 
CC(C)C[C@H](NC(=O)[C@H](CC(C)C)NC(=O)[C@H](CC(C)C)NC(=O)[C@@H](CCCCN)NC(=O)[C@H](CC(C)C)NC(=O)[C@H](CC(C)C)NC(=O)[C@@H](CCCCN)NC(=O)[C@H](CC(C)C)NC(=O)[C@H](CC(C)C)NC(=O)[C@@H](CCCCN)NC(=O)[C@H](N)CCCCN)C(N)=O [ln69, kkLLkLLkLLL, reference compound] (H-[dK][dK]LL[dK]LL[dK]LLL-NH2) | 61 | 34 | 61 | 34 | 45 ± 9 |  |  |  |  |  | 

— article PMC10714400, “Antimicrobial Peptide–Peptoid Hybrids with and without Membrane Disruption” (ACS Infectious Diseases, 2023)
